Test results published in patent publication US20160051706A1, “PROCESS FOR PRODUCING A COMPLEX OF A LANTHANIDE WITH A MACROCYCLIC LIGAND” (AGFA HEALTHCARE, priority 2013, published 2016).
Values joined by “and” are separate entries in the source; they are usually repeats but may differ in a detail not shown here. Equal values may be shown once.

Legend:
[1] = LD50 better than for free DOTA; cited from earlier work
[2] = Moisture content of DOTA (Karl Fischer) over time at controlled relative humidity; assay type: physicochemical; settings: Temp. 20 ± 2° C.
Description: The measurement of the moisture content in DOTA is performed as described in the semi-micro method of Karl Fischer (Fischer, Karl-Pharm. Eur. Section 2.5.12). This section and the next section illustrates how the moisture content in a batch of a macrocyclic ligand changed when the product was exposed to different conditions of relative humidity. The moisture content in the samples was measured using methods known to those skilled in the art. In this example, the measurement of the content of moisture in DOTA was performed as described above. Two samples of DOTA were kept in conditions of relative humidity (RH)=30+5% at a temperature of Temp=20+2° C. From these samples, small samples were taken at different times (T0=beginning of the experiment; T30=T0+30 min; T90=T0+90 min; and […]=T0+300 min) and the moisture content was measured as described above. Each experiment (Exp.) was performed twice and the average of each (Ind.) was determined (Avg.). This measurement, as the previous one, illustrated how the moisture content in a batch of a macrocyclic ligand was affected by the environmental relative humidity conditions. Therefore, the previous experiments were repeated in the same conditions but at a RH=75+5%. Again, each experiment (Exp.) was performed twice and the average of each (Ind.) was determined (Avg.).

SMILES | LD50 of Na2 [Ca-DOTA] relative to free DOTA [1] | Moisture content DOTA, Avg. ([2]; T0, RH 30 ± 5%) | Moisture content DOTA, Ind. ([2]; T0, RH 30 ± 5%) | Moisture content DOTA, Avg. ([2]; T0, RH 75 ± 5%) | Moisture content DOTA, Ind. ([2]; T0, RH 75 ± 5%) | Moisture content DOTA, Avg. ([2]; T30 (T0+30 min), RH 30 ± 5%) | Moisture content DOTA, Ind. ([2]; T30 (T0+30 min), RH 30 ± 5%) | Moisture content DOTA, Avg. ([2]; T30 (T0+30 min), RH 75 ± 5%) | Moisture content DOTA, Ind. ([2]; T30 (T0+30 min), RH 75 ± 5%) | Moisture content DOTA, Avg. ([2]; T90 (T0+90 min), RH 30 ± 5%) | Moisture content DOTA, Ind. ([2]; T90 (T0+90 min), RH 30 ± 5%) | Moisture content DOTA, Avg. ([2]; T90 (T0+90 min), RH 75 ± 5%) | Moisture content DOTA, Ind. ([2]; T90 (T0+90 min), RH 75 ± 5%) | Moisture content DOTA, Avg. ([2]; T300 (T0+300 min), RH 30 ± 5%) | Moisture content DOTA, Ind. ([2]; T300 (T0+300 min), RH 30 ± 5%) | Moisture content DOTA, Avg. ([2]; T300 (T0+300 min), RH 75 ± 5%) | Moisture content DOTA, Ind. ([2]; T300 (T0+300 min), RH 75 ± 5%)
O=C([O-])CN1CCN(CC(=O)[O-])CCN(CC(=O)[O-])CCN(CC(=O)[O-])CC1.[Ca+2].[Na+].[Na+] [Na2 [Ca-DOTA]] | at least 40 times | – | – | – | – | – | – | – | – | – | – | – | – | – | – | – | –
O=C(O)CN1CCN(CC(=O)O)CCN(CC(=O)O)CCN(CC(=O)O)CC1 [DOTA, 1,4,7,10-tetraazacyclododecane-1,4,7,10-tetraacetic acid] | – | 4.929 wt. % and 5.25 wt. % | 5.150 wt. % and 4.941 wt. % and 4.929 wt. % and 5.346 wt. % | 4.94 wt. % and 5.25 wt. % | 5.150 wt. % and 4.941 wt. % and 4.929 wt. % and 5.346 wt. % | 4.98 wt. % and 6.20 wt. % | 6.247 wt. % and 4.944 wt. % and 5.020 wt. % and 6.154 wt. % | 6.71 wt. % and 6.65 wt. % | 6.851 wt. % and 6.734 wt. % and 6.694 wt. % and 6.449 wt. % | 5.00 wt. % and 6.12 wt. % | 6.170 wt. % and 5.038 wt. % and 4.954 wt. % and 6.062 wt. % | 7.34 wt. % and 6.88 wt. % | 6.789 wt. % and 7.475 wt. % and 7.200 wt. % and 6.962 wt. % | 5.15 wt. % and 6.19 wt. % | 6.268 wt. % and 5.178 wt. % and 5.114 wt. % and 6.106 wt. % | 5.86 wt. % and 4.36 wt. % | 4.609 wt. % and 5.914 wt. % and 5.813 wt. % and 4.111 wt. %
